These results are taken from publication PMC8824275, “Gastrointestinal Stability and Cytotoxicity of Bacteriocins From Gram-Positive and Gram-Negative Bacteria: A Comparative in vitro Study” (Frontiers in Microbiology, 2022).

≈ marks a conversion by molar mass, not a printed value. Like-named read-outs stand apart in the source and are kept apart here. Bridge positions count the residues as written; N and C are the ends. Square brackets hold non-standard residues; d marks the D form. Ends that are not written are not given here. Peptide text beside a SMILES is read from it. Abu = CC[C@H](N)C(=O)O; Dhb = C/C=C(\N)C(=O)O; Dha = C=C(N)C(=O)O

One data set relates to S. aureus ATCC 6538. Type of data set: cell-based, Staphylococcus aureus. The conditions noted are these: for Total activity: broth microdilution. An excerpt:
(§1) Microcin J25 was produced by Escherichia coli MC4100 carrying the plasmid PTUC 202 ([Solbiati et al., 1999]). For the antibacterial activity of pure compounds and digestion mixture, Listeria ivanovii HPB28 (Canada Health Protection Branch) was used as indicator strain for nisin and pediocin PA-1, while Staphylococcus aureus ATCC 6538 (ATCC) and Salmonella enterica subsp. enterica serovar Newport ATCC 6962 (later referred to as S. Newport, ATCC) were used as indicator strains for bactofencin A (M14L, M18L) and microcin J25, respectively. L. ivanovii HPB28 and S. aureus were cultured in Tryptic Soy (Difco Laboratories, Spark, MD, United States) supplemented with 0.6% yeast extract (TSBYE), at 30 and 37°C, respectively. S. Newport was cultured at 37°C overnight in Luria-Bertani (LB) (Difco Laboratories, Spark, MD, United States). All strains were maintained at –80°C as stock cultures in their corresponding culture media supplemented with 20% glycerol, and propagated twice at 24 h intervals before use.
(§2) Quantitative determination of inhibitory activity of bacteriocins was carried out using the broth microdilution method as described by [Ben Said et al. (2020)]. Two-fold serial dilutions of bacteriocins (125 μL) were prepared in an appropriate medium in a clear 96-well flat-bottom microtiter plate. Indicator strains were diluted to 10^5 CFU/mL, from which 50 μL were added to each well. The microtiter plates were incubated for 24 h under appropriate conditions, and optical densities were recorded at 595 nm (Infinite M200, Tecan, Switzerland). Control wells contained untreated culture and appropriate medium (blanks). The number of inhibition wells was noted and inhibition activities were calculated in μg/mL.

The next data set concerns S. Newport ATCC 6962. It is filed as cell-based, Salmonella enterica subsp. enterica serovar Newport. The conditions noted are these: for Total activity: broth microdilution.
From the text: as §1, §2
Background: In broth dilution the organism is exposed to a series of concentrations in liquid medium.

For data set [1] the following is noted: cited from earlier work. From the text:
There are limited number of studies regarding the stability of bacteriocins in the GI tract. It has been shown that bacteriocins can be degraded by proteolytic enzymes such as pepsin, trypsin and chymotrypsin in the stomach or intestine ([Fernandez et al., 2013]). […] However, in the current study, pediocin PA-1(M31L) and bactof ...

The test system of the next data set is rat erythrocytes. Kind of data set: Hemolytic activity. Type of data set: cell-based. The conditions noted are these: 0.4 to 400 μg/mL, 45 min, 37°C. The protocol: The experiment was performed after prior approval from the local ethics committee by TransBIOTech laboratory. Hemolytic potential of bacteriocins was evaluated according to [FDA (2005)]. Rat blood was collected into a heparinized tube and added in a 1:1 volume (100 μL) to serially diluted compounds (in 100 μL PBS), in a conical 96-well plate. 10% Triton X-100 and PBS were used as a positive and negative controls, respectively. The plates were sealed and incubated for 45 min at 37°C prior to centrifugation at 2,000 g for 10 min to pellet red blood cells. The supernatant was then transferred into clear 96-well plates and the absorbance was read at 540 nm (hemoglobin). The percentage of hemolysis was calculated as follow, with RBC standing for red blood cells:
%Hemolysis=AbsorbanceofRBCtreatedwithbacteriocins-AbsorbanceofRBCtreatedwithPBS/AbsorbanceofRBCtreatedwithTritonX100-AbsorbanceofRBCtreatedwithPBS

Another data set deals with human red blood cells. The note with it: 750 μM (2.5 mg/mL), ref Begde et al., 2011; cited from earlier work. The protocol:
(§3) Hemolytic activity is used for initial toxicity assessment and estimation of therapeutic index. Nisin remains to be the most studied bacteriocin, while there are very few data available for the other bacteriocins. […] Hemolytic activity of nisin A (Nisaplin®) at 3.35 μg/mL concentration was reported to be 6% in human red blood cells. In another study by [Maher and McClean (2006)], hemolytic activity exerted by 230 μM (771 μg/mL) nisin A (Nutrition 21) was shown ...

The next data set concerns Vero cells. The conditions noted are these: cited from earlier work. From the text:
(§4) To the best of our knowledge, this is the first study that evaluates the cytotoxicity of several bacteriocins with different structures, mechanisms of actions and spectra of inhibitory activity.

Another data set concerns Caco-2. The note with it: MTT assay, ref Maher and McClean, 2006; cited from earlier work.
From the text: as §4
In general terms: Formazan colour is commonly taken as a measure of viable cells.

Another data set relates to HT29 (epithelial cells). The note with it: MTT assay, ref Maher and McClean, 2006; cited from earlier work.
From the text: as §4

The next data set has as its system sheep erythrocytes. The note with it: sheep blood cells, 33.75 μM (113 μg/mL); ref Paiva et al., 2012; cited from earlier work. The protocol: as §3
For a further data set, the system named is MCF-7 cells. The conditions noted are these: ref Paiva et al., 2012; cited from earlier work.
From the text: as §4

For another data set, the system named is HepG2 cells. The conditions noted are these: ref Paiva et al., 2012; cited from earlier work.
From the text: as §4

In data set [2] the test system is human cells relevant to oral cavity. The conditions noted are these: concentration up to 200 μg/mL; ref Shin et al. (2015); cited from earlier work.
In the next data set the test system is L. ivanovii HPB 28. Type of data set: cell-based, Listeria ivanovii. The note with it: broth microdilution.
From the text: as §1, §2

Another data set has as its system SV40 cells. The conditions noted are these: 700 AU/mL (approximately 10–20 mg/mL), trypan blue, ref Murinda et al., 2003; cited from earlier work.
From the text: as §4

Where [3] appears, read: after oral conditions (SSF, 2 min, 37°C).
Setting [4] is: pure compound without GI digestion, 24 h, OD 595 nm.
[5] abbreviates: TIM-1 dynamic model, ref Kheadr et al., 2010.

Usually MIC stands for the smallest concentration in the dilution series that meets the test's criterion for growth inhibition. A high value points to weaker potency. In the case of `CC(C)C[C@@H]1NC(=O)CNC(=O)[C@H]([C@@H](C)O)NC(=O)[C@@H]2CCCN2C(=O)[C@H](CC(C)C)NC(=O)CNC(=O)[C@H](CC(N)=O)NC(=O)[C@H](CC(N)=O)NC(=O)[C@H](Cc2ccc(O)cc2)NC(=O)[C@H](C(C)C)NC(=O)[C@H](CCCNC(=N)N)NC(=O)[C@@H](NC(=O)[C@H](CCCNC(=N)N)NC(=O)[C@H](Cc2c[nH]cn2)NC(=O)[C@H](CCCCN)NC(=O)[C@H](CCCCN)NC(=O)[C@H](CCCNC(=N)N)NC(=O)[C@@H](N)CCCCN)CSSC[C@@H](C(N)=O)NC(=O)[C@H](Cc2c[nH]c3ccccc23)NC(=O)[C@H](CCCNC(=N)N)NC(=O)[C@H](Cc2ccc(O)cc2)NC1=O` [bactofencin A(M14L, M18L)] (H-KRKKHRCRVYNNGLPTGLYRWC-NH2; disulfide 7-22 (inferred); N-terminus and C-terminus assumed), the MIC with S. aureus ATCC 6538 (ATCC 6538, 24 h) amounted to 5 µg/mL (≈ 1.82 µM). In addition, the Total activity with S. aureus ATCC 6538 (setting [3]) and with S. aureus ATCC 6538 (setting [4]) was 10.4 AU/mL each time.

`CC[C@H](C)[C@H](NC(=O)CNC(=O)[C@@H](NC(=O)[C@H](Cc1ccccc1)NC(=O)[C@H](Cc1ccc(O)cc1)NC(=O)[C@@H]1CCC(=O)NCC(=O)NCC(=O)N[C@@H](C)C(=O)NCC(=O)N[C@@H](Cc2c[nH]cn2)C(=O)N[C@@H](C(C)C)C(=O)N2CCC[C@H]2C(=O)N1)C(C)C)C(=O)NCC(=O)N[C@H](C(=O)N1CCC[C@H]1C(=O)N[C@H](C(=O)N[C@@H](CO)C(=O)N[C@@H](Cc1ccccc1)C(=O)N[C@@H](Cc1ccc(O)cc1)C(=O)NCC(=O)O)[C@@H](C)CC)[C@@H](C)O` [microcin J25] (GGAGHVPEYFVGIGTPISFYG-OH; lactam N-8 (inferred); C-terminus assumed): the MIC against S. Newport ATCC 6962 (ATCC 6962, 24 h) was 0.0356 µg/mL (≈ 0.0169 µM). In addition, the Total activity in the data set on S. Newport ATCC 6962 (after gastric conditions (SGF, pepsin 2000 U/mL, lipase 60 U/mL, pH 3, 90 min, 37°C)) amounted to 0.0712 AU/mL; in the data set on S. Newport ATCC 6962 (setting [3]), 0.0712 AU/mL; in the data set on S. Newport ATCC 6962 (after small intestinal conditions (SIF, bile salt 10 mmol/L, pancreatin 100 U/mL, pH 7, 2 h, 37°C)), 0.356 AU/mL; in the data set on S. Newport ATCC 6962 (setting [4]) it was 0.0712 AU/mL.

Consider `CC[C@H](C)[C@H](NC(=O)CNC(=O)[C@@H](NC(=O)[C@H](Cc1ccccc1)NC(=O)[C@H](Cc1ccc(O)cc1)NC(=O)[C@@H]1CCC(=O)NCC(=O)NCC(=O)N[C@@H](C)C(=O)NCC(=O)N[C@@H](Cc2cnc[nH]2)C(=O)N[C@@H](C(C)C)C(=O)N2CCC[C@H]2C(=O)N1)C(C)C)C(=O)NCC(=O)N[C@H](C(=O)N1CCC[C@H]1C(=O)N[C@H](C(=O)N[C@@H](CO)C(=O)N[C@@H](Cc1ccccc1)C(=O)N[C@@H](Cc1ccc(O)cc1)C(=O)NCC(=O)O)[C@@H](C)CC)[C@@H](C)O` [microcin J25] (GGAGHVPEYFVGIGTPISFYG-OH; lactam N-8), for which, in [1], the “Degradation upon exposure to pancreatin (small intestine)” value is given as “only partially degraded” and the “Resistance to the proteolytic enzymes in the stomach” value is listed as “highly resistant”.

Regarding “KYYGNGVTCGKHSCSVDWGKATTCIINNGALAWATGGHQGNHKC-OH (disulfide 9-14, 24-44) [pediocin PA-1(M31L)]”, in the data set on rat erythrocytes, the “Concentration above which dose-dependent increase in percentage of hemolysis was shown” value is recorded as “higher than 50 μg/mL”.

With nisin, the Relative hemolysis in the data set with human red blood cells is reported as 10%.

Usually EC50 stands for the midpoint of the concentration-response curve. “nisin A (I[Dhb]AI[Dha]LC[Abu]PGCK[Abu]GALMGCNMK[Abu]A[Abu]CHCSIHV[Dha]K; thioether (positions not given here); not fully specified (residues 7, 11, 19, 26, 28, bridges); UniProt P13068 24-57, looked up) [nisin A (Nisaplin®), commercial nisin A product Nisaplin (Danisco)]”: the EC50 with Vero cells (LDH cytotoxicity assay, ref Vaucher et al. (2010)) was 0.62 µg/mL.

The IC50 is the point on the concentration scale where inhibition reaches its midpoint. For “nisin A (I[Dhb]AI[Dha]LC[Abu]PGCK[Abu]GALMGCNMK[Abu]A[Abu]CHCSIHV[Dha]K; thioether (positions not given here); not fully specified (residues 7, 11, 19, 26, 28, bridges); UniProt P13068 24-57, looked up) [nisin A (Nutrition 21), commercial nisin A (Nutrition 21)]”, the IC50 is 385.7 µg/mL in the data set with Caco-2 and 301.5 µg/mL with HT29 (epithelial cells).

In the case of nisin C [nisin C (Chrisin®)], the Hemolysis in the data set on sheep erythrocytes is 6.6%. In addition, the “Concentration reducing viability to 50%” value was 352 µg/mL in the data set with MCF-7 cells; 352 µg/mL with HepG2 cells; 45.21 µg/mL with Vero cells (ref Paiva et al., 2012).

Consider “nisin Z (I[Dhb]AI[Dha]LC[Abu]PGCK[Abu]GALMGCNMK[Abu]A[Abu]CNCSIHV[Dha]K; thioether (positions not given here); not fully specified (residues 7, 11, 19, 26, 28, bridges); UniProt P29559 24-57, looked up) [nisin Z (Handary, Brussels, Belgium), commercial nisin Z from Handary]”, for which the Toxic effect result in data set [2] was “did not exert any toxic effect”.

As for “pediocin PA-1 (KYYGNGVTCGKHSCSVDWGKATTCIINNGAMAWATGGHQGNHKC; disulfide 9-14, 24-44; UniProt P29430 19-62, looked up) [wild-type bacteriocin naturally produced by Pediococcus acidilactici, literature data]”, the Total activity with L. ivanovii HPB 28 (setting [3]) and with L. ivanovii HPB 28 (setting [4]) was 0.18 AU/mL in each case. The “Cell viability reduced to” value in the data set on SV40 cells was 36%. In data set [1] (setting [5]), the “Stability in the small intestine” value is given as “completely degraded”. The “Stability in the stomach” value in data set [1] (setting [5]) is listed as “stable”.
